These results are taken from patent US11753395B2 (Kinnate Biopharma Inc., priority 2021, dated 2023).

Test [1] concerns the target T1, MET D1228N (Homo sapiens, UniProt P08581, D1228N).
T1 construct: purchased Signalchem M52-12IG
The test is described as follows: MET D1228N Mobility Shift Assay. The settings on record: biochemical assay IC50; 100 μM ATP, 60 minute kinase reaction. A digest of the protocol:
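Microfluidic electrophoresis quantified phosphorylated versus unphosphorylated 5-FAM-KKKKEEIYFFF peptide (1.5 μM) after a 60 min reaction with 100 μM ATP. MET D1228N (0.313 nM) in 50 mM HEPES, 10 mM MgCl2, 2 mM DTT was preincubated 30 min; IC50 fitted to conversion inhibition.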

The target of test [2] is T2, Ba/F3-TPR-MET-D1228N cells (Homo sapiens, UniProt P08581, D1228N, cells depend on it).
T2 construct: fused on or other part: P12270 (Nucleoprotein TPR)
The experiment in a line: CellTiter-Glo Cell Viability Assay, Ba/F3-TPR-MET-D1228N. The settings on record: 72 hours. Type of test: cell-based. The essentials: (§1)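 IC50 values come from curve-fitted luminescence. Viable-cell ATP was read by CellTiter-Glo 2.0 after a 72 h, 37 °C incubation of 3000 TPR-MET or D1228N-mutant Ba/F3 cells per well. Compounds were tested as a 9-point, 3-fold series with 0.1% DMSO final.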

The target in test [3] is T3, MET (Homo sapiens, UniProt P08581).
T3 construct: purchased Carna Biosciences 08-151
The experiment in a line: MET Mobility Shift Assay. The conditions noted are these: biochemical assay IC50; 100 μM ATP, 60 minute kinase reaction. A digest of the protocol: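 IC50s come from inhibition of substrate-to-phosphopeptide conversion, read by electrophoretic mobility shift. Reaction: 100 μM ATP, 1.5 μM 5-FAM peptide, 0.625 nM MET, 10 mM MgCl2, 60 min, after a 30 min room-temperature enzyme pre-incubation, quenched with EDTA.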

Test [4] has as its target T4, Ba/F3-TPR-MET cells (Homo sapiens, UniProt P08581).
T4 construct: fused on or other part: P12270 (Nucleoprotein TPR)
The experiment in a line: CellTiter-Glo Cell Viability Assay, Ba/F3-TPR-MET. Type of test: cell-based. The settings on record: 72 hours. The essentials:
as §1
On the technique in general: ATP-based viability assays read luminescence as a measure of living cells.

T1 sequence (P08581 25-1390 D1228N): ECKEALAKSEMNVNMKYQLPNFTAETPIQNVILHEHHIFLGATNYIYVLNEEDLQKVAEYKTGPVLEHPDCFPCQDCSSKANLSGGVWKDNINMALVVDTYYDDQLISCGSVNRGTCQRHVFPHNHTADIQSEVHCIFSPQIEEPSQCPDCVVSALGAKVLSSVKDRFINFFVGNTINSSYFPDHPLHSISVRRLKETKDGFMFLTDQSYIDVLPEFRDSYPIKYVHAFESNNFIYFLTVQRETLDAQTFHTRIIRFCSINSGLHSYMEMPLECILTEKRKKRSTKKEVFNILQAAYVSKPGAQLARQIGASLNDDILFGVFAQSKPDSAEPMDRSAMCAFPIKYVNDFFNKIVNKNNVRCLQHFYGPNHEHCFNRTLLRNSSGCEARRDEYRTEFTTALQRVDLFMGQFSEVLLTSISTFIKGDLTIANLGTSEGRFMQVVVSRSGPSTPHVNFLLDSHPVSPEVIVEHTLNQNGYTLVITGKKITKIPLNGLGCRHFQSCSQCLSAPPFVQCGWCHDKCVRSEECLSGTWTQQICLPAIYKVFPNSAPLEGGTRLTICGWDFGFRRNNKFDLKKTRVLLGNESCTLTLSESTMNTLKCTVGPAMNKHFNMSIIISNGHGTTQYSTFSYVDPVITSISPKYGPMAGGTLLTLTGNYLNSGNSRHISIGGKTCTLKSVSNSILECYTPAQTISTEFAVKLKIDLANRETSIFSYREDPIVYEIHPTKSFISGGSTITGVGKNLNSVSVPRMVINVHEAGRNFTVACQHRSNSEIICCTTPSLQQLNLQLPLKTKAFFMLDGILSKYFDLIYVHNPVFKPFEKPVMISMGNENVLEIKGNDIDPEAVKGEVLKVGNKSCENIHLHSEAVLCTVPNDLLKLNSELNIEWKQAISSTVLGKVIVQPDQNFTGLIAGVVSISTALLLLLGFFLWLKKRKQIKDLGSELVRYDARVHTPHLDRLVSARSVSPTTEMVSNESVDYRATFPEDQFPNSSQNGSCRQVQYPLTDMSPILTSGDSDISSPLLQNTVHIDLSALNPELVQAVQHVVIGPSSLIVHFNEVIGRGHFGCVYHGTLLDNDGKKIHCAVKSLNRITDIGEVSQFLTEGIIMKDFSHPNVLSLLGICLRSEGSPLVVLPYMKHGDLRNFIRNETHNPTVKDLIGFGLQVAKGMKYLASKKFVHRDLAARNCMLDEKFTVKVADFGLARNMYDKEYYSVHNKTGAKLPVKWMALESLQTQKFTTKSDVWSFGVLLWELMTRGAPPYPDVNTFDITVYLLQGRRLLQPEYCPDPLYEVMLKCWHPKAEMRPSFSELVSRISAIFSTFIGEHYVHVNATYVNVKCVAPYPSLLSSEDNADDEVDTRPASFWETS
T4 sequence (P08581 whole entry, change not shown, the tested form may be a part): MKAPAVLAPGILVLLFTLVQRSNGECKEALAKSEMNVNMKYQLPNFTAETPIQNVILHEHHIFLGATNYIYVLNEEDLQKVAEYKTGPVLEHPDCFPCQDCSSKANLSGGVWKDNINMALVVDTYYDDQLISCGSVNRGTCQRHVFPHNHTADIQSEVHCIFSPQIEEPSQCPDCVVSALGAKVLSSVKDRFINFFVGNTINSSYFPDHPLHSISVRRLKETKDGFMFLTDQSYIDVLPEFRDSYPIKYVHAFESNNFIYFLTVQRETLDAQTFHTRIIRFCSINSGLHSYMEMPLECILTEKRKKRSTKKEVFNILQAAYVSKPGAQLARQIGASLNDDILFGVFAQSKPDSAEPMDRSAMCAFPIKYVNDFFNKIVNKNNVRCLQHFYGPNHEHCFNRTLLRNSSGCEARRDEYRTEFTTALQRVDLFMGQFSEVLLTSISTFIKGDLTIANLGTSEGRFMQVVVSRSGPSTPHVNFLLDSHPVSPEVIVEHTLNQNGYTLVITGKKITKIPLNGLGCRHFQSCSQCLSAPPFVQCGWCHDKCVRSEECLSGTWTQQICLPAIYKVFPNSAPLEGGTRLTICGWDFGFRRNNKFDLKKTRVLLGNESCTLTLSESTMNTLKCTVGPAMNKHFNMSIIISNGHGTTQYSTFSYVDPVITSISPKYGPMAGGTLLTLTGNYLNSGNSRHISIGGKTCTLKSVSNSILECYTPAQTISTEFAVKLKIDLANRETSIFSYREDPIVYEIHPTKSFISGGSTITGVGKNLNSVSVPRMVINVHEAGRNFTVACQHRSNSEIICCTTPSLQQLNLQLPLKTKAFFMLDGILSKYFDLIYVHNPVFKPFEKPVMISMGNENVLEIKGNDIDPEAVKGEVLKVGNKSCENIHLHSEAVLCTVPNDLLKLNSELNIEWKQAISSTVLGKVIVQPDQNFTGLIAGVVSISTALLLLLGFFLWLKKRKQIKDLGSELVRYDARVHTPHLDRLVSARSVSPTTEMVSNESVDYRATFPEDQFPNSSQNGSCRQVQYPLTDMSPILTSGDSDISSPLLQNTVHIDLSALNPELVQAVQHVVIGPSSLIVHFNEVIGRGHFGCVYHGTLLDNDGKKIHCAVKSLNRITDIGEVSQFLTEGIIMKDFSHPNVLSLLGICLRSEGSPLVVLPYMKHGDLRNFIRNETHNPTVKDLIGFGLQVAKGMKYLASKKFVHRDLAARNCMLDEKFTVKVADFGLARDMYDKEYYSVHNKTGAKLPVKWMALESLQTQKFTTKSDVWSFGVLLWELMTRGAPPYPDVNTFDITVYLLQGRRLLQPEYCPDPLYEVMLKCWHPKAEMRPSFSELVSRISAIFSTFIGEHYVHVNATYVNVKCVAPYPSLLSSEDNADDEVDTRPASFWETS
T3 sequence (P08581 25-1390): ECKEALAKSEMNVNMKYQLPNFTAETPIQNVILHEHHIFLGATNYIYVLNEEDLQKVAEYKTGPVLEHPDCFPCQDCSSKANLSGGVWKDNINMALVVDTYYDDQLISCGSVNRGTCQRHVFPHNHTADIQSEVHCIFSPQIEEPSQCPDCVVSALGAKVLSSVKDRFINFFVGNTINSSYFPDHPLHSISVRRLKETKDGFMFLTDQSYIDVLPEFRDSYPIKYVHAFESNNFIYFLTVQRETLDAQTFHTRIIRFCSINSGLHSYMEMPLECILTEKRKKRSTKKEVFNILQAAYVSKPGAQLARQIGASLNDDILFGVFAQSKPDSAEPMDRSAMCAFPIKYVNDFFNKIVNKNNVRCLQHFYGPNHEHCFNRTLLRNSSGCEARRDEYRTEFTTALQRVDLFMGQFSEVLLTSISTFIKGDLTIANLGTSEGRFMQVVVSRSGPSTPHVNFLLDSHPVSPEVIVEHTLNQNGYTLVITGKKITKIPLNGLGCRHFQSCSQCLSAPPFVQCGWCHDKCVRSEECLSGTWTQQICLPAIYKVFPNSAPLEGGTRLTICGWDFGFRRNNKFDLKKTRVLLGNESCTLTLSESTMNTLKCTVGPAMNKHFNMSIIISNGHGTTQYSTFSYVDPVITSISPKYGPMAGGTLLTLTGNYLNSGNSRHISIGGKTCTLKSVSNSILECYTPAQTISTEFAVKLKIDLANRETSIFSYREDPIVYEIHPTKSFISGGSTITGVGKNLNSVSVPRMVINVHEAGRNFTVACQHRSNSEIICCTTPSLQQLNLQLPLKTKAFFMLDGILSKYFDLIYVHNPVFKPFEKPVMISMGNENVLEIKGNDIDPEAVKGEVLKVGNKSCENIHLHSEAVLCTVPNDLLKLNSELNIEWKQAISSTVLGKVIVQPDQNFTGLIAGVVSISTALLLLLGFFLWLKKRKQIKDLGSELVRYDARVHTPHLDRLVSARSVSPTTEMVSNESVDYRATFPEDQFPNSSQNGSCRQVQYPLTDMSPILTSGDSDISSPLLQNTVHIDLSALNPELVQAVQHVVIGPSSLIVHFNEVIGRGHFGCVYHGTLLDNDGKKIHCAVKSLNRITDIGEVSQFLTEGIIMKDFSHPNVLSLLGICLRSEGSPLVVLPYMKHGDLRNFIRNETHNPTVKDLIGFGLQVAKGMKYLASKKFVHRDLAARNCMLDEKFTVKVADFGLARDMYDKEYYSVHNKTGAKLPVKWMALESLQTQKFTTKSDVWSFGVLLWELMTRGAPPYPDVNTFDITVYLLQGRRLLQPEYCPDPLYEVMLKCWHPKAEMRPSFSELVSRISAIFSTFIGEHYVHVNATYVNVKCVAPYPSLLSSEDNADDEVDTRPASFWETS

For orientation: IC50 means the concentration that inhibits the measured activity by half. The EC50 is the midpoint of the concentration-response curve. Read a high EC50 as lower potency in that assay. Regarding `COc1cc2nccc(Oc3c(F)cc(NC(=O)c4cnccc4OC)cc3F)c2cc1OC[C@H](C)O` [Example 123, (S)-N-(3,5-difluoro-4-{[6-(2-hydroxypropoxy)-7-methoxyquinolin-4-yl]oxy}phenyl)-4-methoxypyridine-3-carboxamide], the IC50 in test [1] and in test [3] was not above 100 nM throughout. The EC50 in test [2] and in test [4] was not above 100 nM throughout.

For `CNCCOc1cc2nccc(Oc3c(F)cc(NC(=O)c4cnccc4OC(C)C)cc3F)c2cc1OC` [Example 59, N-[3,5-difluoro-4-({6-methoxy-7-[2-(methylamino)ethoxy]quinolin-4-yl}oxy)phenyl]-4-isopropoxypyridine-3-carboxamide], the IC50 in test [1] and in test [3] was not above 100 nM throughout. Moreover, the EC50 in test [2] and in test [4] was not above 100 nM in each case.

`CNCCOc1cc2nccc(Oc3cc(F)c(NC(=O)c4c(OC)ccnc4F)cc3F)c2cc1OC` [Example 25, N-[2,5-difluoro-4-({6-methoxy-7-[2-(methylamino)ethoxy]quinolin-4-yl}oxy)phenyl]-2-fluoro-4-methoxypyridine-3-carboxamide]: the IC50 in test [1] and in test [3] was not above 100 nM each time. Moreover, the EC50 in test [2] and in test [4] was 100 to 1000 nM throughout.

For the compound `CNCCOc1ccc2c(Oc3c(F)cc(NC(=O)c4cnccc4OC4CC4)c(F)c3F)ccnc2c1` [Example 94, 4-cyclopropoxy-N-[2,3,5-trifluoro-4-({7-[2-(methylamino)ethoxy]quinolin-4-yl}oxy)phenyl]pyridine-3-carboxamide], the IC50 in test [1] and in test [3] was not above 100 nM in each case. Moreover, the EC50 in test [2] and in test [4] was not above 100 nM throughout.

For `COc1cc2c(Oc3c(F)cc(NC(=O)c4cnccc4OC4CC4)cc3F)ccnc2cc1OC[C@H](C)O` [Example 98, 4-cyclopropoxy-N-[3,5-difluoro-4-({7-[(2S)-2-hydroxypropoxy]-6-methoxyquinolin-4-yl}oxy)phenyl]pyridine-3-carboxamide], the IC50 in test [1] and in test [3] was not above 100 nM in each case. For the same compound, the EC50 in test [2] and in test [4] was not above 100 nM in each case.

Consider `NC1(COc2ccc3c(Oc4c(F)cc(NC(=O)c5cnccc5OC5CC5)cc4F)ccnc3c2)CC1` [Example 88], for which the IC50 in test [1] and in test [3] was not above 100 nM each time. Further, the EC50 in test [2] is not above 100 nM; in test [4], 100 to 1000 nM.

For the compound `COCCOc1cc2nccc(Oc3c(F)cc(NC(=O)c4cnccc4OC)cc3F)c2cc1OCCOC` [Example 43, N-(4-((6,7-bis(2-methoxyethoxy)quinolin-4-yl)oxy)-3,5-difluorophenyl)-4-methoxypyridine-3-carboxamide], the IC50 in test [1] and in test [3] was not above 100 nM in each case. The EC50 in test [2] and in test [4] was not above 100 nM in each case.

Regarding `CNCCOc1cc2nccc(Oc3c(F)cc(NC(=O)c4cnccc4OCC4CC4)cc3F)c2cc1OC` [Example 72, 4-(cyclopropylmethoxy)-N-[3,5-difluoro-4-({6-methoxy-7-[2-(methylamino)ethoxy]quinolin-4-yl}oxy)phenyl]pyridine-3-carboxamide], the IC50 in test [1] and in test [3] was not above 100 nM throughout. Also, the EC50 in test [2] is not above 100 nM; in test [4] it was 100 to 1000 nM.

On to `COCCOc1ccc2c(Oc3c(F)cc(NC(=O)c4nnccc4OC4CC4)cc3F)ccnc2c1` [Example 120, 4-cyclopropoxy-N-(3,5-difluoro-4-((7-(2-methoxyethoxy)quinolin-4-yl)oxy)phenyl)pyridazine-3-carboxamide], for which the IC50 in test [1] and in test [3] was not above 100 nM throughout. In addition, the EC50 in test [2] and in test [4] was 100 to 1000 nM each time.

With `CNCCOc1cc2nccc(Oc3c(F)cc(NC(=O)c4cnccc4O[C@H]4CCOC4)cc3F)c2cc1OC` [Example 71, N-[3,5-difluoro-4-({6-methoxy-7-[2-(methylamino)ethoxy]quinolin-4-yl}oxy)phenyl]-4-[(3S)-oxolan-3-yloxy]pyridine-3-carboxamide], the IC50 in test [1] and in test [3] was not above 100 nM each time. In addition, the EC50 in test [2] and in test [4] was 100 to 1000 nM throughout.

`C[C@@H](O)COc1ccc2c(Oc3c(F)cc(NC(=O)c4cnccc4OC4CC4)cc3F)ccnc2c1` [Example 101, 4-cyclopropoxy-N-[3,5-difluoro-4-({7-[(2R)-2-hydroxypropoxy]quinolin-4-yl}oxy)phenyl]pyridine-3-carboxamide]: the IC50 in test [1] and in test [3] was not above 100 nM throughout. Moreover, the EC50 in test [2] and in test [4] was 100 to 1000 nM in each case.

For `CNCCOc1cc2nccc(Oc3c(F)cc(NC(=O)c4cnccc4OC)cc3Cl)c2cc1OC` [Example 6, N-(3-chloro-5-fluoro-4-((6-methoxy-7-(2-(methylamino)ethoxy)quinolin-4-yl)oxy)phenyl)-4-methoxypyridine-3-carboxamide], the half-maximal inhibitory concentration (IC50) in test [1] and in test [3] was not above 100 nM in each case. The EC50 in test [2] and in test [4] was 100 to 1000 nM throughout.

Turning to `CNCCOc1cc2nccc(Oc3c(F)cc(NC(=O)c4cnccc4OC4CC(F)(F)C4)cc3F)c2cc1OC` [Example 57, N-[3,5-difluoro-4-({6-methoxy-7-[2-(methylamino)ethoxy]quinolin-4-yl}oxy)phenyl]-4-(3,3-difluorocyclobutoxy)pyridine-3-carboxamide], the IC50 in test [1] and in test [3] was not above 100 nM each time. Also, the EC50 in test [2] and in test [4] was 100 to 1000 nM each time.

As for `COc1cc2nccc(Oc3c(F)cc(NC(=O)c4cnccc4OC)cc3F)c2cc1O[C@@H](C)CO` [Example 126, (S)-N-(3,5-difluoro-4-{[6-((1-hydroxypropan-2-yl)oxy)-7-methoxyquinolin-4-yl]oxy}phenyl)-4-methoxypyridine-3-carboxamide], the IC50 in test [1] and in test [3] was not above 100 nM each time. Also, the EC50 in test [2] and in test [4] was not above 100 nM each time.

With `COc1cc2c(Oc3c(F)cc(NC(=O)c4cnccc4OC)cc3F)ccnc2cc1OCCO` [Example 121, N-(3,5-difluoro-4-((7-(2-hydroxyethoxy)-6-methoxyquinolin-4-yl)oxy)phenyl)-4-methoxypyridine-3-carboxamide], the IC50 in test [1] and in test [3] was not above 100 nM each time. The EC50 in test [2] and in test [4] was not above 100 nM each time.

For the compound `COc1ccncc1C(=O)Nc1cc(F)c(Oc2ccnc3cc(OC)c(O[C@@H](C)CO)nc23)c(F)c1` [Example 145, (S)-N-(3,5-difluoro-4-((6-((1-hydroxypropan-2-yl)oxy)-7-methoxy-1,5-naphthyridin-4-yl)oxy)phenyl)-4-methoxynicotinamide], the concentration for half-maximal inhibition (IC50) in test [1] and in test [3] was not above 100 nM in each case. In addition, the EC50 in test [2] and in test [4] was not above 100 nM throughout.

For `CNCCOc1cc2nccc(Oc3c(F)cc(NC(=O)c4cncnc4OC4CC4)cc3F)c2cc1OC` [Example 76, 4-cyclopropoxy-N-[3,5-difluoro-4-({6-methoxy-7-[2-(methylamino)ethoxy]quinolin-4-yl}oxy)phenyl]pyrimidine-5-carboxamide], the IC50 in test [1] and in test [3] was not above 100 nM in each case. The EC50 in test [2] and in test [4] was 100 to 1000 nM each time.

Regarding `CCOc1cc(N)ncc1C(=O)Nc1cc(F)c(Oc2ccnc3cc(OCCCN4CCOCC4)c(OC)cc23)cc1F` [Example 32, 6-amino-N-[2,5-difluoro-4-({6-methoxy-7-[3-(morpholin-4-yl)propoxy]quinolin-4-yl}oxy)phenyl]-4-ethoxypyridine-3-carboxamide], the IC50 in test [1] and in test [3] was not above 100 nM in each case. Besides, the EC50 in test [2] and in test [4] was 100 to 1000 nM in each case.

Regarding `CNCCOc1cc2nccc(Oc3c(F)cc(NC(=O)c4cnc(F)cc4OC4CC4)cc3F)c2cc1OC` [Example 110, 4-cyclopropoxy-N-[3,5-difluoro-4-({6-methoxy-7-[2-(methylamino)ethoxy]quinolin-4-yl}oxy)phenyl]-6-fluoropyridine-3-carboxamide], the IC50 in test [1] and in test [3] was not above 100 nM each time. Moreover, the EC50 in test [2] and in test [4] was not above 100 nM each time.

Turning to `CCNCCOc1cc2nccc(Oc3c(F)cc(NC(=O)c4cnccc4OC4CC4)cc3F)c2cc1OC` [Example 75, 4-cyclopropoxy-N-[4-({7-[2-(ethylamino)ethoxy]-6-methoxyquinolin-4-yl}oxy) -3,5-difluorophenyl]pyridine-3-carboxamide], the IC50 in test [1] and in test [3] was not above 100 nM each time. The 50% effective concentration (EC50) in test [2] and in test [4] was not above 100 nM throughout.

As to `COc1cc2nccc(Oc3c(F)cc(NC(=O)c4cnccc4OC)cc3F)c2cc1OCC(C)(C)O` [Example 125, N-(3,5-difluoro-4-{[6-(2-hydroxy-2-methylpropoxy)-7-methoxyquinolin-4-yl]oxy}phenyl)-4-methoxypyridine-3-carboxamide], the IC50 in test [1] and in test [3] was not above 100 nM throughout. The EC50 in test [2] and in test [4] was not above 100 nM throughout.
